Laboratory results from ChEMBL document CHEMBL1157539, “Thousands of chemical starting points for antimalarial lead identification” (Nature, 2010).

Tested on: Plasmodium falciparum
Test: GSK_TCMDC: Inhibition of Plasmodium falciparum 3D7 in whole erythrocytes, using parasite LDH activity as an index of growth.
Assay type: functional, organism-based
Conditions: Plasmodium falciparum, 3D7

CN(C)c1ccc(Br)c(Br)c1
XC50: 975 nM

Oc1ccc(Cc2ccccc2)cc1CNC1CCCCC1
XC50: 188 nM

O=C(NCc1ccccc1)c1ccc(C(=O)NCC2CNCCO2)cc1 (stereo unspecified)
XC50: 1140 nM

CN(CCCCN)Cc1ccc(-c2ccc(Cl)cc2)cc1
XC50: 882 nM

Cc1cc(O)c(CN(C)Cc2ccc3c(c2)OCO3)cc1C(C)C
XC50: 738 nM

O=C(NC1CCN(Cc2ccsc2)CC1)c1ccc(-c2cccc(C(F)(F)F)c2)s1
XC50: 1440 nM

CCCNCc1c(O)ccc2c(CNCCC)c(O)ccc12
XC50: 597 nM

COc1ccc(NS(=O)(=O)c2ccc(C(=O)Nc3ccc(C(F)(F)F)cc3)cc2)cc1N1CCN(CC2CC2)CC1
XC50: 832 nM

Cc1[nH]c(C)c(-c2ccc(OCCCc3ccccn3)cc2)c(=O)c1Br
XC50: 212 nM

COC(=O)c1cccc(CNCc2ccc(-c3ccc(-c4nc5cc(F)ccc5[nH]4)s3)cc2)c1
XC50: 588 nM

Cc1cc(NCC(C)C)c2[nH]nc(-c3ccccc3)c2n1
XC50: 744 nM

Cc1cc(NCCc2cccc(F)c2)nc(NC(=N)Nc2cccc(C(F)(F)F)c2)n1
XC50: 146 nM

COC(=O)C(=C(C)C)N1C(=O)[C@@H](NC(=O)OCc2ccccc2)[C@H]1SS[C@@H]1[C@H](NC(=O)OCc2ccccc2)C(=O)N1C(C(=O)OC)=C(C)C
XC50: 434 nM

FC(F)(F)c1cc(Nc2ccc(Oc3ccccc3)cc2)c2cc(-c3ccncc3)ccc2n1
XC50: 454 nM

CCOc1cc(C(=O)NC2CC(C)(C)NC(C)(C)C2)ccc1-c1cc2cc(Cl)c(Cl)cc2[nH]1
XC50: 770 nM

Cc1cc(NCCC(=O)NCCOc2ccccc2)nc(NCCOc2ccccc2)n1
XC50: 867 nM

O=C(Nc1cccc(OC2CCN(Cc3ccccc3)CC2)c1)c1ccc(Cl)c(Cl)c1
XC50: 716 nM

CCC(=O)N(c1ccccc1)C1CCN(CCCC(NC(=O)Nc2cc(C(F)(F)F)cc(C(F)(F)F)c2)c2ccc(Cl)c(Cl)c2)CC1 (stereo unspecified)
XC50: 672 nM

CC(C)(C)OC(=O)N1CCN(c2ccccc2NC(=O)c2cccc(C(F)(F)F)c2Oc2ccc(F)cc2)CC1
XC50: 857 nM

COc1ccc(C(=O)C2CCN(CCCCNC(=O)c3ccc(NC(=O)c4ccc(Cl)cc4)cc3)CC2)c(OC)c1
XC50: 772 nM

CC(=O)Nc1cccc(Nc2nccc(-c3c(-c4cccc(NC(=O)c5c(F)cccc5F)c4)nn4ncccc34)n2)c1
XC50: 184 nM

CC(C)CCOc1ccc(NC(=O)c2cccs2)cc1
XC50: 514 nM

O=C(Cc1c[nH]cn1)Nc1ccc(-c2ccc(-c3nc4cc(F)ccc4[nH]3)cc2)cc1
XC50: 731 nM

COc1ccc(-n2ncc(C(=O)N3CCC4(C3)C(=O)N(c3ccccc3)c3ccccc34)c2C)cc1 (stereo unspecified)
XC50: 932 nM

Cc1cccc2nc(-c3ccc(-c4ccc(CN5CCN(CCN6CCOCC6)CC5)cc4)s3)[nH]c12
XC50: 245 nM

Cc1ccc(NC(=O)Nc2ccccc2F)cc1-c1ccc(C(=O)Nc2ccncc2)cc1
XC50: 563 nM

C=CCC1OC(=O)c2cc(OC)cc(OC)c21 (stereo unspecified)
XC50: 343 nM

CC[C@H](C)CNC(=O)c1cccc(-c2cccc(CNCC3CNCCCO3)c2)n1 (stereo partly specified)
XC50: 1080 nM

N=C(N)NC(=O)Nc1ccc([N+](=O)[O-])c(Cl)c1
XC50: 880 nM

S=C(NCCCCCN1CCC(c2c[nH]c3ccccc23)CC1)Nc1ccc(Cl)c(Cl)c1
XC50: 709 nM

Cc1nc2ccc3ccc(CNc4ccc5c(c4)CN([C@H](CCC(=O)O)C(=O)O)C5=O)cc3c2c(=O)[nH]1
XC50: 860 nM

CCc1ccnc2c(N3CCCC3=O)cc(C(=O)N[C@@H](Cc3ccccc3)[C@H](O)CNC3CCOCC3)cc12
XC50: 381 nM

CC(=NNC(S)=Nc1ccccc1Cl)c1ccccn1
XC50: 80.3 nM

C=CCN1Cc2c(O)cccc2C(c2ccc(O)c(O)c2)C1 (stereo unspecified)
XC50: 670 nM

N#Cc1ccc2c(c1)CN(C1CCC(NC(=O)/C=C/c3cc(C(F)(F)F)cc(C(F)(F)F)c3)CC1)CCC2 (stereo unspecified)
XC50: 1390 nM

CCN(CC)c1ccc(NC(=S)NC2CCN(CCCCCNC(=O)/C=C/c3ccc(Cl)c(Cl)c3)CC2)cc1
XC50: 883 nM

ON=C1CCc2cc(-c3cc(-c4ccc(OC5CCNCC5)cc4)oc3-c3ccncc3)ccc21
XC50: 157 nM

CCc1nc(N)nc(N)c1-c1ccc(C(C)(C)C)cc1
XC50: 235 nM

COc1ccc(-c2nc(NC(=O)CS(=O)(=O)c3ccc(F)cc3)sc2C)cc1
XC50: 243 nM

CCNc1cc(C)nc(Nc2ccc(NC(=O)c3ccccc3Br)cc2)n1
XC50: 742 nM

O=C(O)c1ccc(NC(=O)C2CC(=O)N(Cc3ccc(Cl)cc3)C(=Nc3ccc(Cl)cc3)S2)cc1 (stereo unspecified)
XC50: 530 nM

N#Cc1ccc2c(c1)CCN(CCC1CCC(NC(=O)Nc3cnc4ccccc4c3)CC1)C2 (stereo unspecified)
XC50: 768 nM

CCOC(=O)c1c(CSc2ccccc2)oc2cc(CN(C)C)c(O)c(Cl)c12
XC50: 657 nM

O=C(CCCCCNC(=O)c1ccc(O)c(-c2ccc(Cl)c(Cl)c2)c1)NC1CCCc2ccccc21 (stereo unspecified)
XC50: 759 nM

CC(C)(C)c1ccc(Cn2c(=N)n(CC(=O)c3ccc(-c4ccccc4)cc3)c3ccccc32)cc1
XC50: 158 nM

Cc1cc(C2CCN(CCCCNC(=O)c3ccc(NC(=O)c4ccc(Cl)cc4)cc3)CC2)c(C)cc1OCc1nccn1C
XC50: 835 nM

Cc1cccc2nc(-c3ccc(-c4ccc(CNCC(C)C)cc4)cc3)[nH]c12
XC50: 405 nM

CC(C)COc1ccc(Cl)cc1Cc1ccc(-c2nc3ccc(F)cc3[nH]2)o1
XC50: 854 nM

Cc1nc(NC2=NCN(CCCN3CCOCC3)CN2)nc2c(C)cccc12
XC50: 1130 nM

COC(=O)c1ccc(CC(C)NCC(O)c2cccc(Cl)c2Cl)cc1 (stereo unspecified)
XC50: 548 nM

O=C(Nc1ccc(C(F)(F)F)cc1)NC1CCN(c2ccnc3cc(Cl)ccc23)C1 (stereo unspecified)
XC50: 139 nM

N=C(N)NN=CC(=O)Nc1ccc(C(F)(F)F)cc1
XC50: 932 nM

COc1cc(Nc2nccc(-c3c(-c4cccc(NC(=O)c5c(F)cccc5F)c4)nn4ccccc34)n2)cc(OC)c1OC
XC50: 77.3 nM

O=C(Nc1ccc2c(c1)CCN2C1CCN(Cc2cccc(F)c2F)C1)c1ccco1 (stereo unspecified)
XC50: 787 nM

CC(C)N1CCN(c2ccc(OCCCN3CCN(c4cccc(Cl)c4Cl)CC3)c(C(F)(F)F)c2)CC1
XC50: 810 nM

COc1c(C2CCN(CCCCNC(=O)c3ccc(-c4ccc(C#N)cc4)c(O)c3)CC2)ccc2c1CCCC2
XC50: 199 nM

COc1ccc2nc3cc(Cl)ccc3c(Nc3ccc(Oc4ccc(Nc5c6ccc(Cl)cc6nc6ccc(OC)cc56)cc4)cc3)c2c1
XC50: 859 nM

CN(/N=C/c1ccc(Cl)cc1)c1nc(NCCc2ccc(O)cc2)nc(N2CCNCC2)n1
XC50: 1350 nM

OC(CNCc1ccccc1OC(F)F)c1cccc(C(F)(F)F)c1 (stereo unspecified)
XC50: 765 nM

COC(=O)[C@@H](NC(=O)[C@H](CC(C)C)Nc1ccc(C#N)c2ccccc12)c1ccc(O)cc1
XC50: 788 nM

Nc1ccc(-c2nc3cc(Oc4ccc5[nH]c(-c6ccc(N)cc6)nc5c4)ccc3[nH]2)cc1
XC50: 719 nM

CCOc1ccc(C=CC(=O)Nc2ccc3nc(N4CCN(C)CC4)cc(C)c3c2)cc1OC
XC50: 398 nM

Cc1c(CNCCCNc2nc3ccccc3[nH]2)sc(C(F)F)c1Br
XC50: 293 nM

CC(C)NCc1ccc(-c2cccc(NC(=O)c3cccc(Cl)c3)c2)cc1
XC50: 728 nM

CCOC(=O)C(NC(=O)Cc1ccccc1)C(C)C (stereo unspecified)
XC50: 295 nM

CCOC(=O)c1[nH]c2cc(Cl)cc(Cl)c2c1/C=C/C(=O)Nc1ccc(-c2cnc(NC(C)=O)[nH]2)cc1
XC50: 1020 nM

Cc1ccc(C(C)C)c(Oc2cnc(NC(CO)c3ccccc3)nc2N)c1 (stereo unspecified)
XC50: 962 nM

Cc1cc(N2CCCC2)nc(Nc2ccc(NC(=O)C(C)Oc3ccccc3)cc2)n1 (stereo unspecified)
XC50: 1140 nM

CCCCCC(C)c1cc(O)c2c(c1)OC(C)(C)C=C2C1=CCN(Cc2ccccc2)CC1 (stereo unspecified)
XC50: 780 nM

FC(F)(F)c1ccc2[nH]c(-c3cccc(-c4cccc(CNCCc5ccncc5)c4)c3)nc2c1
XC50: 141 nM

COc1ccc(NC(=O)Nc2cc(C)nc3ccccc23)cc1Cl
XC50: 688 nM
